Measured values taken from the Kinase Knowledgebase extract (Sharma et al. 2016).

These molecules were tested against EGFR (human) (UniProt P00533).
Sequence of EGFR (human) (P00533 whole entry, looked up): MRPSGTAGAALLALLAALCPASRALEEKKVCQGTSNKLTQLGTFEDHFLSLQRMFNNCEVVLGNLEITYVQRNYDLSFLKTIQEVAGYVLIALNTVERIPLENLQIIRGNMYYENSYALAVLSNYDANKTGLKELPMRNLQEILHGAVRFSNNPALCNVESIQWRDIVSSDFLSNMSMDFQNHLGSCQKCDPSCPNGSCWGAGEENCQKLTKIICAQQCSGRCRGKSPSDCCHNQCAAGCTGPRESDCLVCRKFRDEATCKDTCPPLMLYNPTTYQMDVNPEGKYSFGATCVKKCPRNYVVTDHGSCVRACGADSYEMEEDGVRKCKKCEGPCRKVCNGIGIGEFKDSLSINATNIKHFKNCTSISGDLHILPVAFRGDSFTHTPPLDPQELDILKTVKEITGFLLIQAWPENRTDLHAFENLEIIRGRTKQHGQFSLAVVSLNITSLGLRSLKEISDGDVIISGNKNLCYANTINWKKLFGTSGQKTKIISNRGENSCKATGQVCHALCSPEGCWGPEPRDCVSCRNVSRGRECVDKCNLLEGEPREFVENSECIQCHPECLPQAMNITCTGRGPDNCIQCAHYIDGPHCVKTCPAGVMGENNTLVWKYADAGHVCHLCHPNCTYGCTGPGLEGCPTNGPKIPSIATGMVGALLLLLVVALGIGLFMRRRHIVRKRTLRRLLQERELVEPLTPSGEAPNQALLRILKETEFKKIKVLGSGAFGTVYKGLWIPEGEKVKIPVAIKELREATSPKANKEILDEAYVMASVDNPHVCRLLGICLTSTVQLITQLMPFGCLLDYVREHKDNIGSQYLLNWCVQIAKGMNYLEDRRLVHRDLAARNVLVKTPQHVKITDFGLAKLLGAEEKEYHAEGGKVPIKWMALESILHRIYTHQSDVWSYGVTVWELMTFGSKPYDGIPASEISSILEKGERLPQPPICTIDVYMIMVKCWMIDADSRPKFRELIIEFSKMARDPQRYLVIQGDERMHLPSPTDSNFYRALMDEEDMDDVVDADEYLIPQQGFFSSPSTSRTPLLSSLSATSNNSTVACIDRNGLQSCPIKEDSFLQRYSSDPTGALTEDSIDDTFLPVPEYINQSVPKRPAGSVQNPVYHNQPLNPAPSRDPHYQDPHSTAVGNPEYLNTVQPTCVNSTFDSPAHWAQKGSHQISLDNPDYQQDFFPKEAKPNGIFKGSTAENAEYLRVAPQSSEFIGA

| IC50 | Structure (SMILES) |
| --- | --- |
| < 100 nM | CN(C)c1nc(-c2cccc(NC(=O)c3c(F)cccc3F)c2)c(-c2ccnc(Nc3ccc(OCCN4CCCC4)nc3)n2)s1 |
| < 100 nM | COCCOc1ccc(Nc2nccc(-c3sc(N)nc3-c3cccc(NC(=O)c4c(F)cccc4F)c3)n2)cc1F |
| < 100 nM | Cc1nc(-c2cccc(NC(=O)c3c(F)cccc3F)c2)c(-c2ccnc(Nc3ccc(OC4CCN(C)CC4)c(F)c3)n2)s1 |
| < 100 nM | Nc1nc(-c2cccc(NC(=O)c3c(F)cccc3F)c2)c(-c2ccnc(Nc3ccc4c(c3)OCC(=O)N4)n2)s1 |
| < 100 nM | CN1CCc2ccc(Nc3nccc(-c4sc(C5CCNCC5)nc4-c4cccc(NC(=O)c5c(F)cccc5F)c4)n3)cc2C1 |
| < 100 nM | Cc1nc(-c2cccc(NC(=O)c3c(F)cccc3F)c2)c(-c2ccnc(Nc3cccc(OCCN(C)C)c3)n2)s1 |
| < 100 nM | NS(=O)(=O)CCc1cccc(Nc2nccc(-c3scnc3-c3cccc(NC(=O)c4c(F)cccc4F)c3)n2)c1 |
| < 100 nM | CCc1nc(-c2cccc(NC(=O)c3c(F)cccc3F)c2)c(-c2ccnc(Nc3ccc(OCCN(C)C)c(Cl)c3)n2)s1 |
| < 100 nM | CC(=O)Nc1nc(-c2cccc(NC(=O)c3c(F)cccc3F)c2)c(-c2ccnc(Nc3cccc(CN4CCCC4)c3)n2)s1 |
| < 100 nM | O=C(Nc1cccc(-c2nc(NCCCN3CCOCC3)sc2-c2ccnc(Nc3cccc(CN4CCCC4)c3)n2)c1)c1c(F)cccc1F |
| < 100 nM | O=C(Nc1cccc(-c2nc(NCCCN3CCOCC3)sc2-c2ccnc(Nc3cccc(F)c3)n2)c1)c1c(F)cccc1F |
| < 100 nM | Cc1nc(-c2cccc(NC(=O)c3c(F)cccc3F)c2)c(-c2ccnc(Nc3ccc(OC4CCN(C(C)C)CC4)c(F)c3)n2)s1 |
| < 100 nM | O=C(Nc1cccc(-c2ncsc2-c2ccnc(Nc3cccc(CN4CCCC4)c3)n2)c1)c1c(F)cccc1F |
| < 100 nM | O=C(Nc1cccc(-c2nc(N3CCC3)sc2-c2ccnc(Nc3ccc(OCCN4CCCC4)c(Cl)c3)n2)c1)c1c(F)cccc1F |
| < 100 nM | CCN(CC)CCOc1cccc(Nc2nccc(-c3sc(N)nc3-c3cccc(NC(=O)c4c(F)cccc4F)c3)n2)c1 |
| < 100 nM | CN(C)CCOc1ccc(Nc2nccc(-c3sc(N4CCCCC4)nc3-c3cccc(NC(=O)c4c(F)cccc4F)c3)n2)cc1Cl |
| < 100 nM | CN(C)CCOc1cccc(Nc2nccc(-c3sc(N4CCCCC4)nc3-c3cccc(NC(=O)c4c(F)cccc4F)c3)n2)c1 |
| < 100 nM | CN(C)CCOc1ccc(Nc2nccc(-c3sc(NCCCN4CCOCC4)nc3-c3cccc(NC(=O)c4c(F)cccc4F)c3)n2)cc1Cl |
| < 100 nM | COc1ccc(Nc2nccc(-c3sc(N)nc3-c3cccc(NC(=O)c4c(F)cccc4F)c3)n2)cc1N1CCNCC1 |
| < 100 nM | CN1CCc2ccc(Nc3nccc(-c4sc(N)nc4-c4cccc(NC(=O)c5c(F)cccc5F)c4)n3)cc2C1 |
| < 100 nM | CN(C)c1nc(-c2cccc(NC(=O)c3c(F)cccc3F)c2)c(-c2ccnc(Nc3ccc(OCCN4CCCC4)c(Cl)c3)n2)s1 |

| IC50 | Structure (SMILES) |
| --- | --- |
| < 100 nM | CC(C)(C)S(=O)(=O)Cc1nc(-c2cccc(NC(=O)c3c(F)cccc3F)c2)c(-c2ccnc(Nc3ccc(OCCN4CCCC4)c(Cl)c3)n2)s1 |
| < 100 nM | CCc1nc(-c2cccc(NC(=O)c3c(F)cccc3F)c2)c(-c2ccnc(Nc3ccc(OCCN(C)C)c(F)c3)n2)s1 |
| < 100 nM | CN1CCN(c2nc(-c3cccc(NC(=O)c4c(F)cccc4F)c3)c(-c3ccnc(Nc4cccc(CN5CCCC5)c4)n3)s2)CC1 |
| < 100 nM | Nc1nc(-c2cccc(NC(=O)c3c(F)cccc3F)c2)c(-c2ccnc(Nc3ccc4c(c3)NC(=O)CO4)n2)s1 |
| < 100 nM | Nc1nc(-c2cccc(NC(=O)c3c(F)cccc3F)c2)c(-c2ccnc(Nc3cccc(F)c3)n2)s1 |
| < 100 nM | CN(C)CCOc1cccc(Nc2nccc(-c3sc(N)nc3-c3cccc(NC(=O)c4c(F)cccc4F)c3)n2)c1 |
| < 100 nM | COc1ccc(Nc2nccc(-c3sc(N)nc3-c3cccc(NC(=O)c4c(F)cccc4F)c3)n2)cc1N1CCN(C)CC1 |
| < 100 nM | CCNc1nc(-c2cccc(NC(=O)c3c(F)cccc3F)c2)c(-c2ccnc(Nc3ccc(CCN4CCCC4)c(F)c3)n2)s1 |
| < 100 nM | COc1ccc(Nc2nccc(-c3sc(NC4CC4)nc3-c3cccc(NC(=O)c4c(F)cccc4F)c3)n2)cc1OCCN(C)C |
| < 100 nM | CN1CCC(c2nc(-c3cccc(NC(=O)c4c(F)cccc4F)c3)c(-c3ccnc(Nc4ccc5c(c4)CN(C)CC5)n3)s2)CC1 |
| < 100 nM | CN(C)CCOc1cccc(Nc2nccc(-c3sc(NCCCN4CCOCC4)nc3-c3cccc(NC(=O)c4c(F)cccc4F)c3)n2)c1 |
| < 100 nM | Nc1nc(-c2cccc(NC(=O)c3c(F)cccc3F)c2)c(-c2ccnc(Nc3cccc(-c4cnco4)c3)n2)s1 |
| < 100 nM | CCN(CC)CCOc1cccc(Nc2nccc(-c3scnc3-c3cccc(NC(=O)c4c(F)cccc4F)c3)n2)c1 |
| < 100 nM | Nc1nc(-c2cccc(NC(=O)c3c(F)cccc3F)c2)c(-c2ccnc(Nc3cccc(CN4CCCC4)c3)n2)s1 |
| < 100 nM | Cc1cc(Nc2nccc(-c3sc(N(C)C)nc3-c3cccc(NC(=O)c4c(F)cccc4F)c3)n2)ccc1CC1CCNCC1 |
| < 100 nM | Nc1nc(-c2cccc(NC(=O)c3c(F)cccc3F)c2)c(-c2ccnc(Nc3cccc(CCS(N)(=O)=O)c3)n2)s1 |
| < 100 nM | O=C(Nc1cccc(-c2nc(N3CCCCC3)sc2-c2ccnc(Nc3cccc(CN4CCCC4)c3)n2)c1)c1c(F)cccc1F |
| < 100 nM | COCCNc1nc(-c2cccc(NC(=O)c3c(F)cccc3F)c2)c(-c2ccnc(Nc3ccc(OCCN4CCCC4)c(Cl)c3)n2)s1 |
| < 100 nM | CCNc1nc(-c2cccc(NC(=O)c3c(F)cccc3F)c2)c(-c2ccnc(Nc3ccc(OCCN(C)C)c(Cl)c3)n2)s1 |
| < 100 nM | CCc1nc(-c2cccc(NC(=O)c3c(F)cccc3F)c2)c(-c2ccnc(Nc3ccc(OCCN4CCCC4)c(F)c3)n2)s1 |
| < 100 nM | Nc1nc(-c2cccc(NC(=O)c3c(F)cccc3F)c2)c(-c2ccnc(Nc3ccc4c(c3)CNCC4)n2)s1 |

More lines, now with the values behind:

| Structure (SMILES) | IC50 |
| --- | --- |
| COc1ccccc1C(=O)Nc1cccc(-c2nc(C)sc2-c2ccnc(Nc3ccc4c(c3)CN(C)CC4)n2)c1 | < 100 nM |
| CN(C)CCOc1ccc(Nc2nccc(-c3sc(N)nc3-c3ccc(F)c(NC(=O)c4c(F)cccc4F)c3)n2)cc1Cl | < 100 nM |
| CNc1nc(-c2cccc(NC(=O)c3cc(F)ccc3F)c2)c(-c2ccnc(Nc3ccc(OC)c(F)c3)n2)s1 | < 100 nM |
| COc1cccc(C(=O)Nc2cccc(-c3nc(C)sc3-c3ccnc(Nc4ccc5c(c4)CN(C)CC5)n3)c2)c1 | < 100 nM |
| COCCOc1ccc(Nc2nccc(-c3sc(N)nc3-c3cccc(NC(=O)c4cccn4C)c3)n2)cc1F | < 100 nM |
| COCCNc1nc(-c2cccc(NC(=O)c3cc(F)ccc3F)c2)c(-c2ccnc(Nc3ccc(OC)c(F)c3)n2)s1 | < 100 nM |
| Cc1nc(-c2cccc(NC(=O)c3c(F)cccc3F)c2)c(-c2ccnc(Nc3ccc(OC4CCNCC4)c(F)c3)n2)s1 | < 100 nM |
| CN(C)CCOc1ccc(Nc2nccc(-c3sc(NS(=O)(=O)CC(F)(F)F)nc3-c3cccc(NC(=O)c4c(F)cccc4F)c3)n2)cc1 | < 100 nM |
| COc1ccc(Nc2nccc(-c3sc(N)nc3-c3cccc(NC(=O)c4c(F)cccc4F)c3)n2)cc1OCCN(C)C | < 100 nM |
| O=C(Cc1cccs1)Nc1cccc(-c2ncsc2-c2ccnc(Nc3ccc4c(c3)OCC(=O)N4)n2)c1 | < 100 nM |
| CN(C)CCOc1cccc(Nc2nccc(-c3scnc3-c3cccc(NC(=O)Cc4cccs4)c3)n2)c1 | < 100 nM |
| O=C1COc2cc(Nc3nccc(-c4scnc4-c4cccc(NC(=O)c5cc(F)ccc5F)c4)n3)ccc2N1 | < 100 nM |
| Cc1nc(-c2cccc(NC(=O)c3cccc(Cl)c3)c2)c(-c2ccnc(Nc3ccc(OCCN(C)C)c(Cl)c3)n2)s1 | < 100 nM |
| CN(C)C1Cc2ccc(Nc3nccc(-c4scnc4-c4cccc(NC(=O)Cc5cccs5)c4)n3)cc2C1 (configuration not stated) | < 100 nM |
| CCN(CC)CCOc1cccc(Nc2nccc(-c3scnc3-c3cccc(NC(=O)Cc4cccs4)c3)n2)c1 | < 100 nM |
| Cc1nc(-c2cccc(NC(=O)c3cc(F)ccc3F)c2)c(-c2ccnc(Nc3ccc(OCCN(C)C)c(F)c3)n2)s1 | < 100 nM |
| CN(C)Cc1cccc(Nc2nccc(-c3scnc3-c3cccc(NC(=O)Cc4cccs4)c3)n2)c1 | < 100 nM |
| COc1ccc(Nc2nccc(-c3scnc3-c3cccc(NC(=O)Cc4cccs4)c3)n2)cc1OCCN(C)C | < 100 nM |

| Structure (SMILES) | IC50 |
| --- | --- |
| CN(C)CCOc1cccc(Nc2nccc(-c3sc(N)nc3-c3cccc(C(=O)Nc4c(F)cccc4F)c3)n2)c1 | < 100 nM |
| CN(C)CCOc1ccc(Nc2nccc(-c3scnc3-c3cccc(NC(=O)c4c(F)cccc4F)c3)n2)cc1Cl | < 100 nM |
| CN(C)CCOc1cccc(Nc2nccc(-c3scnc3-c3cccc(NC(=O)c4c(F)cccc4F)c3)n2)c1 | < 100 nM |
| CN(C)CCOc1ccc(Nc2nccc(-c3sc(N(C)C)nc3-c3cccc(NC(=O)c4c(F)cccc4F)c3)n2)cc1Cl | < 100 nM |
| Cc1nc(-c2cccc(NC(=O)c3cccc(C(F)(F)F)c3)c2)c(-c2ccnc(Nc3ccc4c(c3)CN(C)CC4)n2)s1 | < 100 nM |
| COc1cc(Nc2nccc(-c3sc(N)nc3-c3cccc(NC(=O)c4c(F)cccc4F)c3)n2)cc(OC)c1OC | < 100 nM |
| CN(C)CCCNc1ccc(Nc2nccc(-c3sc(N)nc3-c3cccc(NC(=O)c4cccn4C)c3)n2)cc1F | < 100 nM |
| CN(C)CCCNc1ccc(Nc2nccc(-c3sc(N)nc3-c3cccc(NC(=O)C4CCCCC4)c3)n2)cc1F | < 100 nM |
| CN(C)CCCNc1ccc(Nc2nccc(-c3sc(N)nc3-c3cccc(NC(=O)c4cc(F)ccc4F)c3)n2)cc1F | < 100 nM |
| CN(C)CCOc1ccc(Nc2nccc(-c3sc(N)nc3-c3cccc(NC(=O)c4cc(F)ccc4F)c3)n2)cc1Cl | < 100 nM |
| CN(C)CCOc1ccc(Nc2nccc(-c3sc(N(C)C)nc3-c3cccc(NC(=O)c4c(F)cccc4F)c3)n2)cc1 | < 100 nM |
| COCCOc1ccc(Nc2nccc(-c3sc(N)nc3-c3cccc(NC(=O)c4cc(F)ccc4F)c3)n2)cc1F | < 100 nM |
| Nc1nc(-c2cccc(NC(=O)Cc3cccs3)c2)c(-c2ccnc(Nc3cccc(F)c3)n2)s1 | < 100 nM |
| Cc1nc(-c2cccc(NC(=O)c3ccc(F)cc3)c2)c(-c2ccnc(Nc3ccc(OCCN(C)C)c(Cl)c3)n2)s1 | < 100 nM |
| CCN(CC)CCOc1cccc(Nc2nccc(-c3scnc3-c3cccc(NC(=O)c4cc(F)ccc4F)c3)n2)c1 | < 100 nM |
| COc1ccc(Nc2nccc(-c3sc(N)nc3-c3cccc(NC(=O)c4c(F)cccc4F)c3)n2)cc1N(C)C | < 100 nM |
| Nc1nc(-c2cccc(NC(=O)C3CCCCC3)c2)c(-c2ccnc(Nc3ccc4c(c3)CNCC4)n2)s1 | < 100 nM |
